Data taken from patent US5026848A, “Novel generation of heteroaryloxyalkyl heterocycles with antipicornaviruses activities” (Synphar Laboratories Incorporated, priority 1988, dated 1991).
Converted amounts (≈) assume the structure as drawn.

What was measured:
Rhinovirus 17 = assay: Anti-rhinovirus activity, cytopathic effect inhibition / neutral red dye uptake, type 17; assay type: cell-based; settings: Enterovirus, WI-38; Table II; read-out: MIC 50 Rhinovirus Type 17
Echo-11 = assay: Activity against other picornaviruses, Echo-11; assay type: cell-based; settings: Enterovirus, read-out: MIC 50 Echo 11
[1] = system: 20 serotypes of rhinovirus; assay: Anti-rhinovirus activity against a panel of 20 serotypes; settings: Table II; numerator; denominator 20, but 10 for compound 8 and 6 for compound 30
Rhinovirus 2 = assay: Anti-rhinovirus activity, cytopathic effect inhibition / neutral red dye uptake, type 2; assay type: cell-based; settings: Enterovirus, WI-38; Table II; one of seven commonest serotypes; read-out: MIC 50 Rhinovirus Type 2
Rhinovirus 31 = assay: Anti-rhinovirus activity, cytopathic effect inhibition / neutral red dye uptake, type 31; assay type: cell-based; settings: Enterovirus, WI-38; Table II; one of seven commonest serotypes; read-out: MIC 50 Rhinovirus Type 31
Rhinovirus 56 = assay: Anti-rhinovirus activity, cytopathic effect inhibition / neutral red dye uptake, type 56; assay type: cell-based; settings: Enterovirus, WI-38; Table II; read-out: MIC 50 Rhinovirus Type 56
Coxsacki-B1 = assay: Activity against other picornaviruses, Coxsacki-B1; assay type: cell-based; settings: Enterovirus, read-out: MIC 50 Cox. B1
Rhinovirus 32 = assay: Anti-rhinovirus activity, cytopathic effect inhibition / neutral red dye uptake, type 32; assay type: cell-based; settings: Enterovirus, WI-38; Table II; read-out: MIC 50 Rhinovirus Type 32
Rhinovirus 15 = assay: Anti-rhinovirus activity, cytopathic effect inhibition / neutral red dye uptake, type 15; assay type: cell-based; settings: Enterovirus, WI-38; Table II; one of seven commonest serotypes; read-out: MIC 50 Rhinovirus Type 15
Rhinovirus 53 = assay: Anti-rhinovirus activity, cytopathic effect inhibition / neutral red dye uptake, type 53; assay type: cell-based; settings: Enterovirus, WI-38; Table II; read-out: MIC 50 Rhinovirus Type 53
Polio 1 = assay: microbe, parasite or virus in culture; assay type: cell-based; settings: Enterovirus, read-out: MIC 50 Polio 1
Rhinovirus 29 = assay: Anti-rhinovirus activity, cytopathic effect inhibition / neutral red dye uptake, type 29; assay type: cell-based; settings: Enterovirus, WI-38; Table II; one of seven commonest serotypes; read-out: MIC 50 Rhinovirus Type 29
Rhinovirus 86 = assay: Anti-rhinovirus activity, cytopathic effect inhibition / neutral red dye uptake, type 86; assay type: cell-based; settings: Enterovirus, WI-38; Table II; read-out: MIC 50 Rhinovirus Type 86
Rhinovirus 30 = assay: Anti-rhinovirus activity, cytopathic effect inhibition / neutral red dye uptake, type 30; assay type: cell-based; settings: Enterovirus, WI-38; Table II; read-out: MIC 50 Rhinovirus Type 30
Rhinovirus 1A = assay: Anti-rhinovirus activity, cytopathic effect inhibition / neutral red dye uptake, type 1A; assay type: cell-based; settings: Enterovirus, WI-38; Table I; WI38 cells, 33° C., 3-4 days; NA = Not active; read-out: MIC50 Rhinovirus 1A
Rhinovirus 39 = assay: Anti-rhinovirus activity, cytopathic effect inhibition / neutral red dye uptake, type 39; assay type: cell-based; settings: Enterovirus, WI-38; Table I; WI38 cells, 33° C., 3-4 days; read-out: MIC50 Rhinovirus 39
Coxsacki-A21 = assay: Activity against other picornaviruses, Coxsacki-A21; assay type: cell-based; settings: Enterovirus, read-out: MIC 50 Cox. A21
Rhinovirus 1B = assay: Anti-rhinovirus activity, cytopathic effect inhibition / neutral red dye uptake, type 1B; assay type: cell-based; settings: Enterovirus, WI-38; Table II; one of seven commonest serotypes; read-out: MIC 50 Rhinovirus Type 1B
WI38 cells = assay: Toxicity to WI38 cells (change in morphology in / growth inhibition of 25% of the cells); assay type: cell-based
Rhinovirus 63 = assay: Anti-rhinovirus activity, cytopathic effect inhibition / neutral red dye uptake, type 63; assay type: cell-based; settings: Enterovirus, WI-38; Table II; read-out: MIC 50 Rhinovirus Type 63
Coxsacki-B4 = assay: Activity against other picornaviruses, Coxsacki-B4; assay type: cell-based; settings: Enterovirus, read-out: MIC 50 Cox. B4
Echo-7 = assay: Activity against other picornaviruses, Echo-7; assay type: cell-based; settings: Enterovirus, read-out: MIC 50 Echo 7
HRV-1A and HRV-39 = assay: Anti-rhinovirus activity against HRV-1A and HRV-39; settings: in words
Rhinovirus 4 = assay: Anti-rhinovirus activity, cytopathic effect inhibition / neutral red dye uptake, type 4; assay type: cell-based; settings: Enterovirus, WI-38; Table II; one of seven commonest serotypes; read-out: MIC 50 Rhinovirus Type 4
Coxsacki-A9 = assay: Activity against other picornaviruses, Coxsacki-A9; assay type: cell-based; settings: Enterovirus, read-out: MIC 50 Cox. A9
Rhinovirus 88 = assay: Anti-rhinovirus activity, cytopathic effect inhibition / neutral red dye uptake, type 88; assay type: cell-based; settings: Enterovirus, WI-38; Table II; read-out: MIC 50 Rhinovirus Type 88
Rhinovirus 44 = assay: Anti-rhinovirus activity, cytopathic effect inhibition / neutral red dye uptake, type 44; assay type: cell-based; settings: Enterovirus, WI-38; Table II; read-out: MIC 50 Rhinovirus Type 44
Rhinovirus 36 = assay: Anti-rhinovirus activity, cytopathic effect inhibition / neutral red dye uptake, type 36; assay type: cell-based; settings: Enterovirus, WI-38; Table II; read-out: MIC 50 Rhinovirus Type 36
Enterovirus serotypes = assay type: cell-based
Rhinovirus 49 = assay: Anti-rhinovirus activity, cytopathic effect inhibition / neutral red dye uptake, type 49; assay type: cell-based; settings: Enterovirus, WI-38; Table II; read-out: MIC 50 Rhinovirus Type 49
Rhinovirus 23 = assay: Anti-rhinovirus activity, cytopathic effect inhibition / neutral red dye uptake, type 23; assay type: cell-based; settings: Enterovirus, WI-38; Table II; read-out: MIC 50 Rhinovirus Type 23

Question: How did the IC50 (Rhinovirus 17) turn out when Cc1cnsc1CCCCCCOc1ccc2oc3ccccc3c2c1 [Compound 19] was run?
Answer: > 25 µg/mL

Question: What about the IC50 (Echo-11) of the same compound?
Answer: > 25 µg/mL

Question: And the “All Rhinovirus Serotypes (number of serotypes active / tested)” value [1]?
Answer: 14

Question: What about the IC50 (Rhinovirus 2) of the same compound?
Answer: 10 µg/mL (≈ 27.4 µM)

Question: And the EC50 (Rhinovirus 31)?
Answer: > 25 µg/mL

Question: And the EC50 (Rhinovirus 56)?
Answer: 10 µg/mL (≈ 27.4 µM)

Question: What about the IC50 (Coxsacki-B1) of the same compound?
Answer: 5 µg/mL (≈ 13.7 µM)

Question: And the EC50 (Rhinovirus 32)?
Answer: > 25 µg/mL

Question: What about the IC50 (Rhinovirus 15) of the same compound?
Answer: 10 µg/mL (≈ 27.4 µM)

Question: What about the EC50 (Rhinovirus 53) of the same compound?
Answer: 10 µg/mL (≈ 27.4 µM)

Question: And the EC50 (Polio 1)?
Answer: > 25 µg/mL

Question: And the IC50 (Rhinovirus 29)?
Answer: 10 µg/mL (≈ 27.4 µM)

Question: What about the EC50 (Rhinovirus 86) of the same compound?
Answer: 10 µg/mL (≈ 27.4 µM)

Question: And the IC50 (Rhinovirus 30)?
Answer: 0.5 µg/mL (≈ 1.37 µM)

Question: What about the EC50 (Rhinovirus 1A) of the same compound?
Answer: 10 µg/mL (≈ 27.4 µM)

Question: What about the EC50 (Rhinovirus 39) of the same compound?
Answer: 5 µg/mL (≈ 13.7 µM)

Question: And the IC50 (Coxsacki-A21)?
Answer: 10 µg/mL (≈ 27.4 µM)

Question: What about the IC50 (Rhinovirus 1B) of the same compound?
Answer: 5 µg/mL (≈ 13.7 µM)

Question: And the Toxicity (WI38 cells; Table I, concentration with change in morphology in 25% of WI38 cells)?
Answer: 50 µg/mL

Question: And the Toxicity (WI38 cells; Table II)?
Answer: 50 µg/mL

Question: What about the Toxicity (WI38 cells; Table III) of the same compound?
Answer: 50 µg/mL

Question: What about the EC50 (Rhinovirus 63) of the same compound?
Answer: 10 µg/mL (≈ 27.4 µM)

Question: What about the IC50 (Coxsacki-B4) of the same compound?
Answer: > 25 µg/mL

Question: What about the IC50 (Echo-7) of the same compound?
Answer: 25 µg/mL (≈ 68.4 µM)

Question: What about the “inhibitory activity against HRV-1A and HRV-39 in vitro” value (HRV-1A and HRV-39) of the same compound?
Answer: remarkably inhibitory activity

Question: And the IC50 (Rhinovirus 4)?
Answer: > 25 µg/mL

Question: And the EC50 (Coxsacki-A9)?
Answer: 10 µg/mL (≈ 27.4 µM)

Question: What about the EC50 (Rhinovirus 88) of the same compound?
Answer: 1 µg/mL (≈ 2.74 µM)

Question: What about the EC50 (Rhinovirus 44) of the same compound?
Answer: < 0.5 µg/mL

Question: What about the EC50 (Rhinovirus 36) of the same compound?
Answer: > 25 µg/mL

Question: And the “inhibitory activity against the members of the Entero virus family” value (Enterovirus serotypes)?
Answer: remarkable inhibitory activity

Question: And the “All Enterovirus Serotypes (number of serotypes active / tested)” value (Enterovirus serotypes; Table III, numerator, denominator 7, but 5 for compound 8)?
Answer: 4

Question: What about the EC50 (Rhinovirus 49) of the same compound?
Answer: > 25 µg/mL

Question: And the IC50 (Rhinovirus 23)?
Answer: 10 µg/mL (≈ 27.4 µM)
